≈ marks a conversion by molar mass, not a printed value. Where two headings read alike, the source gives them in different places. Marks after values point to notes of the source that are not given here.
Legend:
[1] = Fast pharmacokinetic (PK) studies; type: in vivo, mouse
Description: To rapidly ascertain the PK properties of the compounds, fast PK studies were conducted. These studies involve administration of the compounds using a limited number of animals (n=2 mice per time point) for a few time points. This allows us to rapidly compare the preliminary PK properties of the compounds, so that full PK studies are conducted only with the most promising compound(s). […] The alkyne substituted pyrazole 66b had the lowest clearance and the highest systemic exposure, as measured by area under the curve (AUC, Table 2).
Female ICR mice (6-8 weeks old, ˜20-g body weight) were used for the PK and peritonitis studies. Animals were purchased from Harlan Laboratories, Inc. (Indianapolis, Ind., USA) and given Teklad 2019 Extruded Rodent Diet and water ad libitum. Mice were maintained in polycarbonate shoebox cages with ¼″ corncob (The Andersons Inc., Maumee, Ohio) and Alpha-dri (Sheperd Specialty Papers, Inc., Richland, Mich.) bedding under 12-h light/12-h dark cycle at 72±2° F.
For fast PK studies, the compounds were dissolved in 10% DMSO/25% Tween-80/65% water at a concentration of 5 mg/mL. The dosing formulations were sterilized by filtration through a 0.2 μm, 13 mm diameter PTFE membrane attached to an Acrodisc syringe filter (Pall Life Sciences, Ann Arbor, Mich., USA). […] Terminal blood was collected at 5 min, 40 min, 2 h, 4 h, and 8 h; blood was centrifuged at 1200 g for 10 min to harvest plasma.
Plasma ([…], aliquot) was mixed with 100 μL of acetonitrile containing internal standard (final concentration 8 μg/mL). After centrifugation at 10000 g for 10 min, the supernatant was analyzed by ultraperformance liquid chromatography (UPLC) with UV detection at 285 nm. A Waters Acquity UPLC System (Waters Corporation, Milford, Mass., USA), consisting of a binary pump, an autosampler, a column heater, and a photodiode array detector was used. An Acquity UPLC C18 1.7 μm, 2.1 mm i.d.×50 mm column was used. Elution was at 0.5 mL/min with 70% A/30% B for 2 min, followed by a 10-min linear gradient to 10% A/90% B, then 70% A/30% B for 2 min, where A=0.1% formic acid/water and B=0.1% formic acid/acetonitrile. Monitoring was by UV detection at 285 nm. Calibration curves for each compound were prepared in control plasma containing internal standard. The concentrations in the PK samples were obtained using peak area ratio to the internal standard and the calibration curve regression analysis parameters. The methods were linear from 0.01 to 100 μg/mL; coefficients of determination R^2 range from 0.98 to 0.99.
The area under the curve (AUC), clearance (CL), volume of distribution (Vd), and terminal half-life were calculated using Phoenix WinNonlin 6.3 (Certara LP, St Louis, Mo., USA) noncompartmental analysis using uniform weighing. Half-lives were estimated from the linear portion of the initial or terminal phase of the concentration-time data by linear regression, where the slope of the line was the rate constant k and t1/2=ln 2/k.

HepG2 cells = assay: XTT cytotoxicity assay; type: cell-based; conditions: for IC50: Homo sapiens
Description: We used the XTT assay with HepG2 cells to evaluate the in vitro toxicity of compounds 60b, 60c, 65b, 66b, 75b and 76b (Table 2). […] Compared to the lead 1, indole 75b was 5-fold less toxic.
The XTT cytotoxicity assay was performed in triplicated using HepG2 cells (ATCC HB-8065), as previously described (Tran et al., Am. J. Clin. Dermatol. 2015; doi 10.1007/S40257-015-0125-9). The IC50 values were calculated with GraphPad Prism 5 (GraphPad Software, Inc., San Diego, Calif., USA).

S. aureus VRS1 = assay: MIC determination; type: cell-based; conditions: Staphylococcus aureus
From the text: (§1) The ESKAPE organisms (E. faecium NCTC (ATCC 19734), S. aureus ATCC 29213, K. pneumonia ATCC 700603, A. baumannii ATCC 17961, P. aeruginosa ATCC 17853, E. aerogenes ATCC 35029) and E. coli ATCC 25922) in the initial screen, S. aureus ATCC 27660, S. epidermis ATCC 35547, S. haemolyticus ATCC 29970, S. oralis ATCC 9811, S. pyogenes ATCC 49399, B. cereus ATCC 13061, B. licheniformis ATCC 12759, and E. faecalis ATCC 29212 were purchased from the American Type Culture Collection (Manassas, Va., USA). S. aureus strains NRS100, NRS119, NRS120, VRS1, and VRS2 were obtained from the Network on Antimicrobial Resistance in Staphylococcus aureus (Chantilly, Va., USA). E. faecalis strains 201 and 99, and E. faecium strains 119-39A and 106 were collected from Wayne State University School of Medicine.
(§2) The procedure for MIC determination was the same as previously reported (Tran et al., Am. J. Clin. Dermatol. 2015; doi 10.1007/S40257-015-0125-9).

S. pyogenes ATCC 49399 = assay: MIC determination; type: cell-based; conditions: Streptococcus pyogenes, ATCC49399
From the text: as §1, §2

S. oralis ATCC 9811 = assay: MIC determination; type: cell-based; conditions: Streptococcus oralis, ATCC9811
From the text: as §1, §2

B. cereus ATCC 13061 = assay: MIC determination; type: cell-based; conditions: Bacillus cereus, ATCC13061
From the text: as §1, §2

[2] = test system: S. haemolyticus ATCC 29970; assay: MIC determination; type: cell-based; conditions: Staphylococcus haemolyticus, ATCC29970
From the text: as §1, §2

S. aureus ATCC 29213 = assay: MIC determination; type: cell-based, Staphylococcus aureus; conditions: for MIC: Staphylococcus aureus
S. aureus NRS100 (COL) = assay: MIC determination; type: cell-based; conditions: Staphylococcus aureus
From the text: as §1, §2

S. epidermis ATCC 35547 = assay: MIC determination; type: cell-based
From the text: as §1, §2

[3] = single iv dose at 20 mg/kg, mice
[4] = HepG2 cells, cytotoxicity, read-out: XTT HepG2 IC50
[5] = vancomycin-resistant MRSA (vanA) isolate from Michigan, Tables 1 and 5, read-out: MIC
[6] = ATCC29213, Table 3.1 and SAR text, compounds of Schemes 2-4, read-out: S. aureus ATCC 29213 MIC
[7] = ATCC29213, quality-control, methicillin-susceptible strain, Tables 1 and 5, read-out: MIC
[8] = mecA positive, resistant to methicillin, oxacillin, tetracycline, Tables 1 and 5, read-out: MIC

| Structure (SMILES) | AUC0-8 h [1, 3] [µg·min/mL] | CL [1, 3] [mL/min/kg] | IC50 (HepG2 cells; [4]) [µg/mL] | MIC (S. aureus VRS1; [5]) [µg/mL] | MIC (S. pyogenes ATCC 49399; Table 1, read-out: MIC) [µg/mL] | MIC (S. oralis ATCC 9811; Table 1, read-out: MIC) [µg/mL] | MIC (B. cereus ATCC 13061; Tables 1 and 5, read-out: MIC) [µg/mL] | MIC ([2]; Tables 1 and 5, read-out: MIC) [µg/mL] | MIC (S. aureus ATCC 29213; [6]) [µg/mL] | MIC (S. aureus ATCC 29213; [7]) [µg/mL] | MIC (S. aureus NRS100 (COL); [8]) [µg/mL] | MIC (S. epidermis ATCC 35547; Tables 1 and 5, read-out: MIC) [µg/mL] | other results |
| --- | --- | --- | --- | --- | --- | --- | --- | --- | --- | --- | --- | --- | --- |
| FC(F)(F)c1ccc(Oc2ccc(-c3noc(-c4ccc5[nH]ccc5c4)n3)cc2)cc1 [Compound 75b, 5-(1H-Indol-5-yl)-3-(4-(4-(trifluoromethyl)phenoxy)phenyl)-1,2,4-oxadiazole] | 1283 | 15.2 | 75.7 ± 7.3 (≈ 180 µM) | 1 (≈ 2.37 µM) | 64 (≈ 152 µM) | 128 (≈ 304 µM) | 16 (≈ 38 µM) | 8 (≈ 19 µM) | 4 (≈ 9.49 µM) | 2 (≈ 4.75 µM) | – | – | fold less toxic than the lead 1 (HepG2 cells; XTT assay, HepG2 cells): 5 fold |
| Fc1ccc(Oc2ccc(-c3noc(-c4n[nH]cc4Cl)n3)cc2)cc1 [Compound 60c, 5-(4-Chloro-1H-pyrazol-3-yl)-3-(4-(4-fluorophenoxy)phenyl)-1,2,4-oxadiazole] | 446 | 44.9 | 18.2 ± 2.9 (≈ 51 µM) | 1 (≈ 2.8 µM) | > 128 | > 128 | > 128 | > 128 | 0.5 (≈ 1.4 µM) | 1 (≈ 2.8 µM) | > 128 | > 128 | – |
| Oc1ccc(-c2nc(-c3ccc(Oc4ccc(C(F)(F)F)cc4)cc3)no2)cc1 [Compound 1] | – | – | 25.8 (≈ 64.8 µM) | 2 (≈ 5.02 µM) | 32 (≈ 80.3 µM) | 32 (≈ 80.3 µM) | 2 (≈ 5.02 µM) | 2 (≈ 5.02 µM) | 1 (≈ 2.51 µM) | 2 (≈ 5.02 µM) | 2 (≈ 5.02 µM) | 2 (≈ 5.02 µM) | AUC(0-t) ([1]; ICR, mouse, plasma, compound 1 at 50 mg/kg iv, read-out: AUC0-8 h): 44200 ng·h/mL; CL ([1]; compound 1 at 50 mg/kg iv): 18.9^c mL/min/kg |
| FC(F)(F)c1ccc(Oc2ccc(-c3noc(-c4c[nH]cn4)n3)cc2)cc1 [Compound 76b, 5-(1H-Imidazol-4-yl)-3-(4-(4-(trifluoromethyl)phenoxy)phenyl)-1,2,4-oxadiazole] | 2054 | 9.7 | 31.5 ± 0.5 (≈ 84.6 µM) | 1 (≈ 2.69 µM) | 128 (≈ 344 µM) | > 128 | – | 16 (≈ 43 µM) | 2 (≈ 5.37 µM) | – | 32 (≈ 86 µM) | 32 (≈ 86 µM) | – |
| C#Cc1c[nH]nc1-c1nc(-c2ccc(Oc3ccc(C(F)(F)F)cc3)cc2)no1 [Compound 66b, 5-(4-Ethynyl-1H-pyrazol-3-yl)-3-(4-(4-(trifluoromethyl)phenoxy)phenyl)-1,2,4-oxadiazole] | 8261 | 2.4 | 9.8 ± 4 (≈ 24.7 µM) | 1 (≈ 2.52 µM) | > 128 | > 128 | > 128 | > 128 | 0.25 (≈ 0.631 µM) | – | > 128 | > 128 | S. aureus ATCC 29213 MIC (S. aureus ATCC 29213; Table 3.1, compounds of Schemes 2-4): 0.25 µg/mL |
| CC(C)Nc1c[nH]nc1-c1nc(-c2ccc(Oc3ccc(C(F)(F)F)cc3)cc2)no1 [Compound 65b, N-Isopropyl-3-(3-(4-(4-(trifluoromethyl)phenoxy)phenyl)-1,2,4-oxadiazol-5-yl)-1H-pyrazol-4-amine] | 1313 | 15.2 | – | – | – | – | – | – | – | – | – | – | IC50 (HepG2 cells; HepG2, read-out: XTT HepG2 IC50): 3.9 ± 0.8 µg/mL (≈ 9.08 µM); MIC (S. aureus VRS1; MRSA): 1 µg/mL (≈ 2.33 µM); MIC (S. aureus NRS100 (COL)): > 128 µg/mL; MIC (S. epidermis ATCC 35547): > 128 µg/mL; MIC (S. pyogenes ATCC 49399): > 128 µg/mL; MIC (S. oralis ATCC 9811): > 128 µg/mL; MIC (B. cereus ATCC 13061): > 128 µg/mL; MIC [2]: > 128 µg/mL; MIC (S. aureus ATCC 29213; ATCC29213): 0.5 µg/mL (≈ 1.16 µM); MIC (S. aureus ATCC 29213; ATCC29213, read-out: S. aureus ATCC 29213 MIC): 0.5 µg/mL (≈ 1.16 µM) |
| FC(F)(F)c1ccc(Oc2ccc(-c3noc(-c4n[nH]cc4Cl)n3)cc2)cc1 [Compound 60b, 5-(4-Chloro-1H-pyrazol-3-yl)-3-(4-(4-(trifluoromethyl)phenoxy)phenyl)-1,2,4-oxadiazole] | 910 | 22.0 | 24.1 ± 1.6 (≈ 59.3 µM) | 1 to 2 (≈ 2.46 to 4.92 µM) | > 128 | > 128 | > 128 | > 128 | 1 (≈ 2.46 µM) | – | > 128 | > 128 | – |
